# Assay results published in patent publication US7507753B2, “Biaryl compound and use thereof” (Takeda Chemical Industries Ltd., priority 2001, dated 2009).
# Structures can show the parent of a compound that is named as a salt.
# Molecular target: T1, Human MC4R (Homo sapiens, UniProt P32245)
# T1 construct: expressed in transfected cells; plasmid pMC4R in vector pMSR alpha neo
# Experiment: [125I]-[Nle4,D-Phe7]-α-MSH binding inhibition in CHO/MC4R cells
# Conditions: test compound 10 μM, 100 pM [125I]-[Nle4,D-Phe7]-α-MSH, room temperature, 60 minutes
# Method: (1) Cloning of Human MC4R
# Cloning of MC4R gene was conducted from human brain cDNA by PCR method. Using 0.5 ng of brain cDNA (Clontech, Quick-lone cDNA) as a genetic template, primer sets prepared by referring to MC4R gene base sequence described in Birkenbach M. et al. (J. Virol, 67(4),2209-2220(1993)), i.e., primer-1: 5′-[…]-3′ [Sequence No.:1] and primer-2: 5′-[…]-3′ [Sequence No.:2] were added in amounts of 50 pmol, respectively, and, the PCR reaction was carried out using TaKaRa LA Taq(Takara Shuzo)in Gene Amp PCR System 9600 (Applied Biosystems)(Reaction conditions: 35 cycles of 95° C. for 1 minute, 62° C. for 1 minute, and 72° C. for 3 minutes).
# (2) Preparation of Expression Plasmid for Human MC4R
# After the PCR fragments obtained above were digested by restriction enzymes Eco RI (Takara Shuzo) and Sal I (Takara Shuzo), DNA fragments were collected by agarose gel electrophoresis. The DNA fragments and an expression plasmid for animal cells pMSR a neo (Japanese Unexamined Patent Application Publication No. 2000-281685, WO 00/44756), which was previously digested by Eco RI and Sal I, were mixed and ligated using a DNA Ligation Kit Ver. 2 (Takara Shuzo). Transformation of E. coli JM109 competent cells gave plasmid pMC4R.
# (3) Introduction of the Expression Plasmid for Human MC4R into CHO-K1 Cells and Expression thereof
# CHO-KI cells grown in 150 cm^2 of a cell culture flask (Corning Costar) using Ham F12 medium (GIBCO BRL) containing 10% fetal bovine serum (GIBCO BRL) were collected by using 0.5 g/L trypsin-0.2 g/L EDTA (GIBCO BRL). The cells were washed with PBS (GIBCO BRL), centrifuged (1000 rpm, 5 minutes), and were suspended in PBS. Then, the DNA was introduced into the cells using Gene Pulser (BioRad) according to the following conditions. Namely, 1×10^7 cells and 15 μg of human MC4R expression plasmid pMC4R were placed in a 0.4-cm gap cuvette, and the mixture was electropolated under 0.25 kV of electric voltage, and 960 μF of capacitance. Cells were then transferred to Ham F12 medium containing 10% fetal bovine serum. After incubation for 24 hours, cells were collected, centrifuged, and suspended in Ham F12 medium containing 10% fetal bovine serum and Geneticin (GIBCO BRL) at a concentration of 500 μg/ml. Cells were diluted to a concentration of 10^4 cells/ml, and inoculated in 96-well plate (Corning Costar) to obtain Geneticin-resistant strains.
# The Geneticin-resistant strains were grown in 96-well plates (OPAQUE PLATE 3917, Costar), and MC4R-expressing cells were selected from the resistant strains. Namely, in an assay buffer (20 mM HEPES (Dojindo Laboratories, Inc.), 0.5% BSA, 0.05% NaN3) containing 200 pM [^125I]-[Nle4,D-Phe7]-α-Melanocyte Stimulating Hormone (Daiichi Pure Chemicals Co., Ltd.), the cells were subjected to binding reaction at room temperature for 60 minutes. After the assay buffer was removed by inspiration, the cells were washed with ice-cooled PBS, and then stirred after adding 100 μl/well of MicroScint-20 (Packard Industry Company, Inc.) to each well. Subsequently, the cells were counted for radioactivity using a Top Count (Packard) to select CHO/MC4R strains, the cells to which [^125I]-[Nle4,D-Phe7]-α-Melanocyte Stimulating Hormone bound specifically. […]
# The CHO/MC4R strains were inoculated in 96 well microplate at a concentration of 1×10^4 cells/well, and grown for 72 hours. […] Then, 100 μl MicroScint 20 (Packerd) was added to each well, and the radioactivity of each well was measured by Top Count (Packard). […]
# T1 sequence (P32245 whole entry): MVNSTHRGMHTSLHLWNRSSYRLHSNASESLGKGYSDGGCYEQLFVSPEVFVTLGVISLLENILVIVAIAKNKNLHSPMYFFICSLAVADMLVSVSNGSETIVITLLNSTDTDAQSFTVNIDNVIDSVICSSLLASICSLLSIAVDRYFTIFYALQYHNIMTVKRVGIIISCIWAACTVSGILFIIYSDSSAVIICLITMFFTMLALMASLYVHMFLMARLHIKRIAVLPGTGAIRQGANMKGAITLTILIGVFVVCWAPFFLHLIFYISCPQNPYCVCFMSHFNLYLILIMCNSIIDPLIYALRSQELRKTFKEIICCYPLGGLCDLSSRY
row,Binding Inhibitory Ratio,SMILES
1,97%,"CC(c1cccc(-c2ccccc2C(=O)NCCN)c1)N(C(=O)Cc1ccc(Cl)cc1)C1CCN(Cc2ccccc2)CC1 (centres unmarked) [Example 3, N-(2-aminoethyl)-3′-[1-{N-(1-benzylpiperidin-4-yl)-N-(4-chlorophenylacetyl)amino}ethyl][1,1′-biphenyl]-2-carboxamide dihydrochloride]"
2,92%,"CC(c1cccc(-c2ccccc2C(=O)NCCN)c1)N(C(=O)Cc1cccc(Cl)c1)C1CCN(Cc2ccccc2)CC1 (centres unmarked) [Example 4, N-(2-aminoethyl)-3′-[1-(N-(1-benzylpiperidin-4-yl)-N-(3-chlorophenylacetyl)amino}ethyl][1,1′-biphenyl]-2-carboxamide dihydrochloride]"
3,96%,"CC(c1cccc(-c2ccccc2C(=O)NCCN)c1)N(C(=O)Cc1ccc2ccccc2c1)C1CCN(Cc2ccccc2)CC1 (centres unmarked) [Example 1, N-(2-aminoethyl)-3′-[1-{N-(1-benzylpiperidin-4-yl)-N-(2-naphthylacetyl)amino}ethyl][1,1′-biphenyl)-2-carboxamide dihydrochloride]"
4,97%,"CC(c1cccc(-c2ccccc2C(=O)NCCN)c1)N(C(=O)Cc1ccc(Br)cc1)C1CCN(Cc2ccccc2)CC1 (centres unmarked) [Example 2, N-(2-aminoethyl) -3′-[1-{N-(1-benzylpiperidin-4-yl)-N-(4-bromophenylacetyl)amino}ethyl][1,1′-biphenyl]-2-carboxamide dihydrochloride]"
5,100%,"CC(c1cccc(-c2ccccc2C(=O)NCCN)c1)N(C(=O)Cc1ccc(Cl)c(Cl)c1)C1CCN(Cc2ccccc2)CC1 (centres unmarked) [Example 9, N-(2-aminoethyl)-3′-[1-{N-(1-benzylpiperidin-4-yl)-N-(3,4-dichlorophenylacetyl)amino}ethyl][1,1′-biphenyl]-2-carboxamide dihydrochloride]"
